Source: patent US9302999B2, “Substituted triazoles as herbicides” (E. I. DU PONT DE NEMOURS AND COMPANY, priority 2012, dated 2016)

Experiments:
Assay type in all cases: in vivo
[1] = test system: barnyardgrass (Echinochloa crus-galli); assay: Test A pre-/postemergence: barnyardgrass
Procedure, shortened: (§1)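 Injury is scored visually on a scale where 0 means no effect and 100 complete control, comparing treated with untreated plants after approximately ten greenhouse days. Both preemergence and postemergence applications are made at the same time.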

[2] = test system: crabgrass, large (large crabgrass, Digitaria sanguinalis); assay: Test A pre-/postemergence: crabgrass, large
Procedure, shortened: as §1

[3] = test system: foxtail, giant (giant foxtail, Setaria faberii); assay: Test A pre-/postemergence: foxtail, giant
Procedure, shortened: as §1

[4] = test system: morningglory (Ipomoea spp.); assay: Test A pre-/postemergence: morningglory
Procedure, shortened: as §1

[5] = test system: pigweed (Amaranthus retroflexus); assay: Test A pre-/postemergence: pigweed
Procedure, shortened: as §1

[6] = test system: velvetleaf (Abutilon theophrasti); assay: Test A pre-/postemergence: velvetleaf
Procedure, shortened: as §1

[7] = test system: wheat (Triticum aestivum); assay: Test A pre-/postemergence: wheat
Procedure, shortened: as §1

[8] = test system: corn (Zea mays); assay: Test A pre-/postemergence: corn
Procedure, shortened: as §1

[9] = test system: rice (Oryza sativa); assay: Test B flooded paddy: rice; conditions: Flood; 250 g ai/ha; applied to paddy water at 2-leaf stage; visually evaluated after 13 to 15 days
Procedure, shortened: (§2)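 Plants were grown to the 2-leaf stage and pots flooded to 3 cm above soil. Compounds were applied directly into the paddy water, with depth kept for the test. After 13–15 days in greenhouse, response was rated visually against controls on a 0 (no effect) to 100 (complete control) scale.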

[10] = test system: sedge, umbrella (small-flower umbrella sedge Cyperus difformis); assay: Test B flooded paddy: sedge, umbrella; conditions: Flood; 250 g ai/ha; applied to paddy water at 2-leaf stage; visually evaluated after 13 to 15 days
Procedure, shortened: as §2

[11] = test system: ducksalad (Heteranthera limosa); assay: Test B flooded paddy: ducksalad; conditions: Flood; 250 g ai/ha; applied to paddy water at 2-leaf stage; visually evaluated after 13 to 15 days
Procedure, shortened: as §2

[12] = test system: barnyardgrass (Echinochloa crus-galli); assay: Test B flooded paddy: barnyardgrass; conditions: Flood; 250 g ai/ha; applied to paddy water at 2-leaf stage; visually evaluated after 13 to 15 days
Procedure, shortened: as §2

[13] = Postemergence, 125 g ai/ha, 0 to 100 scale, 0 is no effect, 100 is complete control
[14] = Postemergence, 500 g ai/ha, 0 to 100 scale, 0 is no effect, 100 is complete control
[15] = Preemergence, 125 g ai/ha, 0 to 100 scale where 0 is no effect and 100 is complete control
[16] = Preemergence, 500 g ai/ha, 0 to 100 scale (0 no effect, 100 complete control)

Cc1nn(-c2ccc(C(F)(F)F)cn2)nc1C(=NO)c1cccc(C(F)(F)F)c1 [Compound 201] was tested, and the “Plant response rating, Barnyardgrass” value [1, 13] was 0, the “Barnyardgrass plant response rating” value [1, 14] was 10 and the “Plant response rating, Barnyardgrass” value [1, 15] was 0. For the same compound, the “Plant response rating, Barnyardgrass” value [1, 16] was 0, the “Plant response rating, Crabgrass, Large” value [2, 13] was 20 and the “Crabgrass, Large plant response rating” value [2, 14] was 30. The “Plant response rating, Crabgrass, Large” value [2, 15] was 0, the “Plant response rating, Crabgrass, Large” value [2, 16] was 20 and the “Plant response rating, Foxtail, Giant” value [3, 13] was 0. The “Foxtail, Giant plant response rating” value [3, 14] was 10, the “Plant response rating, Foxtail, Giant” value [3, 15] was 0 and the “Plant response rating, Foxtail, Giant” value [3, 16] was 20. The “Plant response rating, Morningglory” value [4, 13] was 10, the “Morningglory plant response rating” value [4, 14] was 50 and the “Plant response rating, Morningglory” value [4, 15] was 0. For the same compound, the “Plant response rating, Morningglory” value [4, 16] was 0, the “Plant response rating, Pigweed” value [5, 13] was 60 and the “Pigweed plant response rating” value [5, 14] was 100. For the same compound, the “Plant response rating, Pigweed” value [5, 15] was 0, the “Plant response rating, Pigweed” value [5, 16] was 10 and the “Plant response rating, Velvetleaf” value [6, 13] was 20. For the same compound, the “Velvetleaf plant response rating” value [6, 14] was 40, the “Plant response rating, Velvetleaf” value [6, 15] was 0 and the “Plant response rating, Velvetleaf” value [6, 16] was 0. For the same compound, the “Plant response rating, Wheat” value [7, 13] was 0, the “Wheat plant response rating” value [7, 14] was 10 and the “Plant response rating, Wheat” value [7, 15] was 0. The “Plant response rating, Wheat” value [7, 16] was 0, the “Plant response rating, Corn” value [8, 13] was 10 and the “Corn plant response rating” value [8, 14] was 20. The “Plant response rating, Corn” value [8, 15] was 0, the “Plant response rating, Corn” value [8, 16] was 0 and the “Plant response rating, Rice (0 to 100 scale, 0 is no effect, 100 is complete control)” value [9] was 0. The “Plant response rating, Sedge, Umbrella (0 to 100 scale, 0 is no effect, 100 is complete control)” value [10] was 0, the “Plant response rating, Ducksalad (0 to 100 scale, 0 is no effect, 100 is complete control)” value [11] was 0 and the “Plant response rating, Barnyardgrass (0 to 100 scale, 0 is no effect, 100 is complete control)” value [12] was 0.
